Patent US7276603B2, “Benzofuranyl-and benzothienyl-piperazinyl quinolines and methods of their use” (Wyeth, priority 2003, dated 2007)
Structures can show the parent of a compound that is named as a salt.

Assays:
human 5-HT1A receptors = molecular target: T1, human 5-HT1A receptors (Homo sapiens, UniProt P08908); test: displacement of [3H] 8-OH-DPAT from the 5-HT1A serotonin receptor; assay type: binding; details: CHO cells stably transfected with human 5-HT1A receptors
T1 construct: expressed in transfected cells; host or cells: CHO cells
T1 sequence (P08908 1-422): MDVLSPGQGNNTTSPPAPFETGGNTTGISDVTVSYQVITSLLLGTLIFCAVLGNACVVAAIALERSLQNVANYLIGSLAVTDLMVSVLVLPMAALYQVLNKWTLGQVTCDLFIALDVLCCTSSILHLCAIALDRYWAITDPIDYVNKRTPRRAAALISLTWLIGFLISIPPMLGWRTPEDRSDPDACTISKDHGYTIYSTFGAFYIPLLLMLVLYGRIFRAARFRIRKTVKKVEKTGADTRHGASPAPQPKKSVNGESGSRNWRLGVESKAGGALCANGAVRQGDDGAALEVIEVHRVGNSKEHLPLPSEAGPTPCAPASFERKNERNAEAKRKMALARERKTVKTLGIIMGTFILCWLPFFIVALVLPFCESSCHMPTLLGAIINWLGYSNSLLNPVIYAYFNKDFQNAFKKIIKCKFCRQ

5-HT transporter = 5-HT transporter (Rattus norvegicus, UniProt P31652); test: Rat Brain 3H-Paroxetine Binding Assay (RB 5HT Transporter); details: rat frontal cortical membranes; 3H-paroxetine 0.1 nM, 60 min, 25° C.
Excerpt: Rat Brain ^3H-Paroxetine Binding Assay (RB 5HT Transporter):
This assay was used to determine a compound's affinity of the 5-HT transporter.
All reactions were terminated by the addition of ice cold Tris buffer followed by rapid filtration using a Tom Tech filtration device to separate bound from free ^3H-paroxetine.

Sequence of 5-HT transporter (P31652 whole entry): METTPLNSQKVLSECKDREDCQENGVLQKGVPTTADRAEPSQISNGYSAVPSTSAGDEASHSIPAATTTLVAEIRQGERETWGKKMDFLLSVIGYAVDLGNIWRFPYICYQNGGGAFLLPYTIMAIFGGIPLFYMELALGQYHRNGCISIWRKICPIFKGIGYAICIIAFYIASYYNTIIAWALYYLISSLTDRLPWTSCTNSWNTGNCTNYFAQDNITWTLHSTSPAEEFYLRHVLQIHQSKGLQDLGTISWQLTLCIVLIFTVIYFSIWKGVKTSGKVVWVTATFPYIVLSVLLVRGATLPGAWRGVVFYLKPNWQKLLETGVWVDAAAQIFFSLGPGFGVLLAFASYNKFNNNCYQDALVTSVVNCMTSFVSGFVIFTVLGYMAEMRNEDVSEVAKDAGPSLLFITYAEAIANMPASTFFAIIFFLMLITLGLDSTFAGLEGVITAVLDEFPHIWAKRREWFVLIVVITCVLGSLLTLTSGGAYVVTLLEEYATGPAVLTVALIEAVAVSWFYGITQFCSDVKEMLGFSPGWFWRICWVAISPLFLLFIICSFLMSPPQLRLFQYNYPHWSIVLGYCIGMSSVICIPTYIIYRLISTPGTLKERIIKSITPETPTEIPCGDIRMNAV

SMILES | Ki (human 5-HT1A receptors) | Ki (5-HT transporter) | melting point
Fc1ccc2scc([C@H]3CC[C@H](N4CCN(c5ccc(Cl)c6cccnc56)CC4)CC3)c2c1 [Compound 52, 5-chloro-8-{4-[4-trans(5-fluoro-1-benzothien-3-yl)cyclohexyl]piperazin-1-yl}quinoline] |  | 48 nM | 195 to 197 °C
COc1cc(N2CCN([C@H]3CC[C@@H](c4csc5ccccc54)CC3)CC2)c2ncccc2c1 [Compound 45, 8-{4-[4-cis(1-benzothien-3-yl)cyclohexyl]-1-piperazinyl}-6-methoxyquinoline] | 1.73 nM | 259 nM | 148 to 150 °C
COc1cccc2c(C(C)CN3CCN(c4cccc5cccnc45)CC3)coc12 (stereo not drawn) (as salt: HCl) [Compound 31, 8-{4-[2-(7-methoxy-1-benzofuran-3-yl)propyl]-1-piperazinyl}quinoline] |  |  | 192 °C
COc1ccc2occ(CCN3CCN(c4cccc5cccnc45)CC3)c2c1 [Compound 21, 8-{4-[2-(5-methoxy-1-benzofuran-3-yl)ethyl]-1-piperazinyl}-quinoline] | 2.83 nM | 7.25 nM | 78 °C
Fc1cc(N2CCN([C@H]3CC[C@H](c4csc5ccccc54)CC3)CC2)c2ncccc2c1 [Compound 44, 8-{4-[4-trans(1-benzothien-3-yl)cyclohexyl]-1-piperazinyl}-6-fluoroquinoline] | 130 nM | 380 nM | 195 °C
Fc1cc(N2CCN([C@H]3CC[C@@H](c4csc5ccccc54)CC3)CC2)c2ncccc2c1 [Compound 43, 8-{4-[4-cis(1-benzothien-3-yl)cyclohexyl]-1-piperazinyl}-6-fluoroquinoline] | 1.17 nM | 311 nM | 147 to 151 °C
Clc1cc(N2CCN([C@H]3CC[C@@H](c4csc5ccccc54)CC3)CC2)c2ncccc2c1 [Compound 41, 8-{4-[4-cis-(1-benzothien-3-yl)cyclohexyl]-1-piperazinyl}-6-chloroquinoline] | 2.25 nM | 65 nM | 164 to 165 °C
COc1cc(N2CCN([C@H]3CC[C@H](c4csc5ccccc54)CC3)CC2)c2ncccc2c1 [Compound 46, 8-{4-[4-trans (1-benzothien-3-yl)cyclohexyl]-1-piperazinyl}-6-methoxyquinoline] | 126 nM | 21 nM | 166 to 168 °C
Fc1cc(N2CCN([C@H]3CC[C@H](c4csc5ccc(F)cc54)CC3)CC2)c2ncccc2c1 [Compound 48, 6-fluoro-8-{4-[4-trans(5-fluoro-1-benzothien-3-yl)cyclohexyl]piperazin-1-yl}quinoline] | 0.28 nM | 155 nM | 143 to 144 °C
Fc1cc(N2CCN(CCc3coc4ccc(F)cc34)CC2)c2ncccc2c1 (as salt: HCl) [Compound 17, 8-{4-[2-(5-fluoro-1-benzofuran-3-yl)ethyl]-1-piperazinyl}-6-fluoro-quinoline] |  |  | 55 °C
COc1cccc2c(CCN3CCN(c4cc(Cl)cc5cccnc45)CC3)coc12 (as salt: HCl) [Compound 20, 8-{4-[2-(7-methoxy-1-benzofuran-3-yl)ethyl]-1-piperazinyl}-6-chloro-quinoline] |  |  | 248 °C
Cc1cc(N2CCN(CCc3coc4ccccc34)CC2)c2ncccc2c1 [Compound 3, 8-{4-[2-(1-benzofuran-3-yl)ethyl]-1-piperazinyl}-6-methylquinoline] | 1.93 nM | 14 nM | 
COc1cc(N2CCN([C@H]3CC[C@@H](c4csc5ccc(F)cc54)CC3)CC2)c2ncccc2c1 [Compound 49, 6-methoxy-8-{4-[4-cis(5-fluoro-1-benzothien-3-yl)cyclohexyl]piperazin-1-yl}quinoline] | 1.37 nM | 92 nM | 
COc1ccc2c(CCN3CCN(c4cc(C)cc5cccnc45)CC3)coc2c1 [Compound 10, 8-{4-[2-(6-methoxy-1-benzofuran-3-yl)ethyl]-1-piperazinyl}-6-methyl-quinoline] | 0.94 nM | 97 nM | 
COc1cc(N2CCN(CCc3coc4ccc(F)cc34)CC2)c2ncccc2c1 (as salt: HCl) [Compound 16, 8-{4-[2-(5-fluoro-1-benzofuran-3-yl)ethyl]-1-piperazinyl}-6-methoxy-quinoline] |  |  | 80 °C
COc1cccc2c(C(C)CN3CCN(c4cc(Cl)cc5cccnc45)CC3)coc12 (stereo not drawn) (as salt: HCl) [Compound 33, 8-{4-[2-(7-methoxy-1-benzofuran-3-yl)propyl]-1-piperazinyl}-6-chloro-quinoline] |  |  | 55 to 58 °C
COc1cccc2c(C(C)CN3CCN(c4cc(C)cc5cccnc45)CC3)coc12 (stereo not drawn) [Compound 32, 8-{4-[2-(7-methoxy-1-benzofuran-3-yl)propyl]-1-piperazinyl}-6-methyl-quinoline] | 2.16 nM | 35 nM | 
COc1ccc2c(CCN3CCN(c4cc(Cl)cc5cccnc45)CC3)coc2c1 [Compound 11, 8-{4-[2-(6-methoxy-1-benzofuran-3-yl)ethyl]-1-piperazinyl}-6-chloro-quinoline] | 0.81 nM | 37 nM | 
COc1cc(N2CCN(CCc3coc4ccc(F)cc34)CC2)c2ncccc2c1 [Compound 16, 8-{4-[2-(5-fluoro-1-benzofuran-3-yl)ethyl]-1-piperazinyl}-6-methoxy-quinoline] | 8.05 nM | 62 nM | 

Second part, the compound after the results:

Ki (human 5-HT1A receptors) | Ki (5-HT transporter) | melting point | SMILES
14.4 nM | 146 nM | 153 to 160 °C | COc1ccc2occ([C@H]3CC[C@@H](N4CCN(c5cc(F)cc6cccnc56)CC4)CC3)c2c1 [Compound 67, 6-fluoro-8-{4-[4-cis(5-methoxy-1-benzofuran-3-yl)cyclohexyl]piperazin-1-yl}quinoline]
0.16 nM | 50 nM | 195 to 197 °C | COc1cccc2c1occ2[C@H]1CC[C@H](N2CCN(c3cc(F)cc4cccnc34)CC2)CC1 [Compound 60, 6-fluoro-8-{4-[4-trans(7-methoxy-1-benzofuran-3-yl)cyclohexyl]-1-piperazinyl}quinoline]
16.6 nM | 77 nM | 195 to 197 °C | Fc1cc(N2CCN([C@H]3CC[C@H](c4coc5ccccc54)CC3)CC2)c2ncccc2c1 [Compound 56, 8-{4-[4-trans(1-benzofuran-3-yl)cyclohexyl]-1-piperazinyl}-6-fluoroquinoline]
0.22 nM | 121 nM | 152 to 155 °C | COc1ccc2occ([C@H]3CC[C@H](N4CCN(c5cc(F)cc6cccnc56)CC4)CC3)c2c1 [Compound 68, 6-fluoro-8-{4-[4-trans(5-methoxy-1-benzofuran-3-yl)cyclohexyl]piperazin-1-yl}quinoline]
16.3 nM | 106 nM | 91 to 93 °C | Fc1cc(N2CCN(C3CCC(c4cc5ccccc5o4)CC3)CC2)c2ncccc2c1 (stereo not drawn) [Compound 69, 8-[4-(4-benzofuran-2-yl-yclohexyl)-piperazin-1-yl]-6-fluoro-quinoline]
0.4 nM | 163 nM | 143 to 146 °C | COc1cccc2c1occ2[C@H]1CC[C@@H](N2CCN(c3ccc(F)c4cccnc34)CC2)CC1 [Compound 57, 5-fluoro-8-{4-[4-cis(7-methoxy-1-benzofuran-3-yl)cyclohexyl]-1-piperazinyl}quinoline]
25.1 nM | 38 nM | 162 to 164 °C | Fc1ccc(N2CCN([C@H]3CC[C@H](c4coc5ccccc54)CC3)CC2)c2ncccc12 [Compound 54, 8-{4-[4-trans(1-benzofuran-3-yl)cyclohexyl]-1-piperazinyl}-5-fluoroquinoline]
1550 nM | 47 nM | 184 to 186 °C | COc1cc(N2CCN([C@H]3CC[C@@H](c4cc5ccccc5s4)CC3)CC2)c2ncccc2c1 [Compound 70]
41.4 nM | 27 nM | 66 to 67 °C | COc1cccc2c1occ2[C@H]1CC[C@@H](N2CCN(c3cccc4cccnc34)CC2)CC1 [Compound 61, 8-{4-[4-cis(7-methoxy-1-benzofuran-3-yl)cyclohexyl]-1-piperazinyl}quinoline]
162 nM |  | 193 to 194 °C | COc1cc(N2CCN([C@H]3CC[C@H](c4cc5ccccc5s4)CC3)CC2)c2ncccc2c1 [Compound 71]
10.1 nM | 53 nM |  | COc1ccc2occ([C@H]3CC[C@@H](N4CCN(c5ccc(Cl)c6cccnc56)CC4)CC3)c2c1 [Compound 65, 5-chloro-8-{4-[4-cis(5-methoxy-1-benzofuran-3-yl)cyclohexyl]piperazin-1-yl}quinoline]
1.99 nM | 89 nM |  | COc1ccc2occ([C@H]3CC[C@H](N4CCN(c5ccc(Cl)c6cccnc56)CC4)CC3)c2c1 [Compound 66, 5-chloro-8-{4-[4-trans(5-methoxy-1-benzofuran-3-yl)cyclohexyl]piperazin-1-yl}quinoline]
21.1 nM | 34 nM |  | COc1cccc2c1occ2[C@H]1CC[C@H](N2CCN(c3ccc(F)c4cccnc34)CC2)CC1 [Compound 58, 5-fluoro-8-{4-[4-trans(7-methoxy-1-benzofuran-3-yl)cyclohexyl]-1-piperazinyl}quinoline]
